Our source for the IC50 values is patent publication US12195450B2, “Small molecule neutral sphingomyelinase 2 (nSMase2) inhibitors” (The Johns Hopkins University, priority 2019, dated 2025).

For the assay, the target named is T1, nSMase2 (Homo sapiens, UniProt Q9NY59).
T1 sequence (Q9NY59 1-655): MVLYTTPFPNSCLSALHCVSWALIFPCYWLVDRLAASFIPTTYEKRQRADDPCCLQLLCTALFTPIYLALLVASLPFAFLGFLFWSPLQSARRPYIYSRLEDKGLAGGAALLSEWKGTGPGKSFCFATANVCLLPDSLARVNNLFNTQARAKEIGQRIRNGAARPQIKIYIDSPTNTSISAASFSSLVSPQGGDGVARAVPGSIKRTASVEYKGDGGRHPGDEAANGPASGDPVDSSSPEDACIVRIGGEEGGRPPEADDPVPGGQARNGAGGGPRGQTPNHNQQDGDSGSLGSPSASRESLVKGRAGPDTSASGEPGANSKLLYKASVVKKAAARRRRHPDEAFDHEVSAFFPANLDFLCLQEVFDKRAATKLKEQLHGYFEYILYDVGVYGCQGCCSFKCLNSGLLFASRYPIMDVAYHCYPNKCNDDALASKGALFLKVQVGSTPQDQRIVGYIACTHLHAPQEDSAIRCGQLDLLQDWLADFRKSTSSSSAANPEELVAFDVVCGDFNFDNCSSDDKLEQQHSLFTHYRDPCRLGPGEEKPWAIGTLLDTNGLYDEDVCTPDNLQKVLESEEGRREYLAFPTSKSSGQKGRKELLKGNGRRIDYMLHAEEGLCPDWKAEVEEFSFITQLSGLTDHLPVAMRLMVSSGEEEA
Put plainly: Inhibition of nSMase2 (IC50). Type of assay: biochemical.

Setting [1] is: Table 1, Representative Inhibitors of nSMase2 of Formula (I).

Structures can show the parent of a compound that is named as a salt.

In the case of `COc1cc(-c2ncc[nH]2)cc(OC)c1O` [Compound 18, 4-(1H-imidazol-2-yl)-2,6-dimethoxyphenol], the IC50 (usually the concentration at which inhibition is half-maximal) turned out to be 0.4 µM under setting [1] and 0.4 µM (Table 2, Inhibition of nSMase).

Consider `COc1cc(-c2nc(C)c(C)[nH]2)cc(OC)c1O` [Compound 19, 4-(4,5-dimethyl-1H-imidazol-2-yl)-2,6-dimethoxyphenol hydrochloride], for which the IC50 is 0.5 µM under setting [1] and 0.5 µM (Table 2, Inhibition of nSMase). For the compound `COc1cc(-c2nc3c([nH]2)CCCC3)cc(OC)c1O` [Compound 20, 2,6-dimethoxy-4-(4,5,6,7-tetrahydro-1H-benzo[d]imidazol-2-yl)phenol], the IC50 worked out at 0.4 µM under setting [1] and 0.4 µM (Table 2, Inhibition of nSMase). For `CC(C)Oc1cc(-c2nc(-c3ccccc3)c(-c3cccs3)[nH]2)cc(OC(C)C)c1O` [Compound 22, 2,6-diisopropoxy-4-(4-phenyl-5-(thiophen-2-yl)-1H-imidazol-2-yl)phenol], the IC50 turned out to be 0.02 µM under setting [1] and 0.03 µM (Table 2, Inhibition of nSMase).

In turn, `COc1cc(-c2ncc(-c3ccccc3)[nH]2)cc(OC)c1O` [Compound 23, 2,6-dimethoxy-4-(5-phenyl-1H-imidazol-2-yl)phenol hydrochloride] gave an IC50 (Table 2, Inhibition of nSMase) of 0.07 µM. For the compound `COc1cc(-c2ncc(C)[nH]2)cc(OC)c1O` [Compound 24, 2,6-dimethoxy-4-(5-methyl-1H-imidazol-2-yl)phenol], the IC50 reads like this: under setting [1], 0.2 µM; (Table 2, Inhibition of nSMase) 0.2 µM. Consider `COc1cc(-c2nc(-c3ccccc3)c(-c3ccccc3)[nH]2)cc(OC)c1O` [Compound 25, 4-(4,5-diphenyl-1H-imidazol-2-yl)-2,6-dimethoxyphenol], for which half-maximal inhibition (Table 2, Inhibition of nSMase) (IC50) was put at 0.02 µM.

`COc1cc(-c2ncc(-c3ccc(Br)cc3)[nH]2)cc(OC)c1O` [Compound 26, 4-(5-(4-bromophenyl)-1H-imidazol-2-yl)-2,6-dimethoxyphenol]: the IC50 by setting is: under setting [1], 0.2 µM; (Table 2, Inhibition of nSMase) 0.2 µM. On to `COc1cc(-c2nc(-c3cccs3)c(-c3cccs3)[nH]2)cc(OC)c1O` [Compound 27, 4-(4,5-di(thiophen-2-yl)-1H-imidazol-2-yl)-2,6-dimethoxyphenol], for which 0.02 µM corresponded to half-maximal inhibition under setting [1] (IC50). On the same count and under the same terms, the same measure for `COc1ccc(-c2nc(-c3cc(OC)c(O)c(OC)c3)[nH]c2-c2ccc(OC)cc2)cc1` [Compound 28, 4-(4,5-bis(4-methoxyphenyl)-1H-imidazol-2-yl)-2,6-dimethoxyphenol]: 0.02 µM.

As for `COc1cc(-c2nc(-c3ccc(C)cc3)c[nH]2)cc(OC)c1O` [Compound 29, 2,6-dimethoxy-4-(4-p-tolyl-1H-imidazol-2-yl)phenol], the IC50 came out at 0.1 µM under setting [1] and 0.1 µM (Table 2, Inhibition of nSMase). With `Oc1c(OC2CCCC2)cc(-c2nc(-c3ccccc3)c(-c3cccs3)[nH]2)cc1OC1CCCC1` [Compound 30, 2,6-bis(cyclopentyloxy)-4-(5-phenyl-4-(thiophen-2-yl)-1H-imidazol-2-yl)phenol], the IC50 is, setting by setting: under setting [1], 0.1 µM; (Table 2, Inhibition of nSMase) 0.1 µM. On to `CCCOc1cc(-c2nc(-c3cccs3)c(-c3ccccc3)[nH]2)cc(OCCC)c1O` [Compound 31, 4-(5-phenyl-4-(thiophen-2-yl)-1H-imidazol-2-yl)-2,6-dipropoxyphenol], for which half-maximal inhibition under setting [1] (IC50) required 0.04 µM and it took 0.04 µM to reach half-maximal inhibition (Table 2, Inhibition of nSMase) (IC50).

The compound `CCCCc1[nH]c(-c2cc(OC)c(O)c(OC)c2)nc1C` [Compound 32, 4-(5-butyl-4-methyl-1H-imidazol-2-yl)-2,6-dimethoxyphenol] returned an IC50 under setting [1] of 0.06 µM. For `CCc1nc(-c2cc(OC)c(O)c(OC)c2)[nH]c1CC` [Compound 33, 4-(4,5-diethyl-1H-imidazol-2-yl)-2,6-dimethoxyphenol], the IC50 reads like this: under setting [1], 0.08 µM; (Table 2, Inhibition of nSMase) 0.08 µM.

Turning to `COc1cc(-c2nc(-c3ccco3)c(-c3ccco3)[nH]2)cc(OC)c1O` [Compound 34, 4-(4,5-di(furan-2-yl)-1H-imidazol-2-yl)-2,6-dimethoxyphenol hydrochloride], the IC50 turned out to be 0.03 µM under setting [1] and 0.03 µM (Table 2, Inhibition of nSMase). `COc1cc(-c2nc(C)c(-c3ccccc3)[nH]2)cc(OC)c1O` [Compound 35, 2,6-dimethoxy-4-(4-methyl-5-phenyl-1H-imidazol-2-yl)phenol]: the IC50 under setting [1] came out at 0.02 µM. For `Oc1c(OCC(F)(F)F)cc(-c2nc(-c3ccccc3)c(-c3cccs3)[nH]2)cc1OCC(F)(F)F` [Compound 36, 4-(4-phenyl-5-(thiophen-2-yl)-1H-imidazol-2-yl)-2,6-bis(2,2,2-trifluoroethoxy)phenol], the IC50 is, setting by setting: under setting [1], 0.06 µM; (Table 2, Inhibition of nSMase) 0.06 µM. On to `CCc1nc(-c2cc(OCC(F)(F)F)c(O)c(OCC(F)(F)F)c2)[nH]c1CC` [Compound 37, 4-(4,5-diethyl-1H-imidazol-2-yl)-2,6-bis(2,2,2-trifluoroethoxy)phenol], for which the IC50 turned out to be 0.7 µM under setting [1] and 0.7 µM (Table 2, Inhibition of nSMase).

For `COc1cc(-c2nc(-c3ccc(C)cc3)c(-c3ccc(C)cc3)[nH]2)cc(OC)c1O` [Compound 38, 4-(4,5-di-p-tolyl-1H-imidazol-2-yl)-2,6-dimethoxyphenol], the IC50 was determined as 0.06 µM under setting [1] and 0.06 µM (Table 2, Inhibition of nSMase). For the compound `COc1cc(-c2ncc(C34CC5CC(CC(C5)C3)C4)[nH]2)cc(OC)c1O` [Compound 39, 2,6-dimethoxy-4-(5-adamantyl-1H-imidazol-2-yl)phenol], the IC50 is, setting by setting: under setting [1], 0.2 µM; (Table 2, Inhibition of nSMase) 0.2 µM.

As for `CCc1nc(-c2cc(OC)c(O)c(OC)c2)[nH]c1-c1ccccn1` [Compound 40, 4-(4-ethyl-5-(pyridin-2-yl)-1H-imidazol-2-yl)-2,6-dimethoxyphenol hydrochloride], the IC50 is 0.5 µM under setting [1] and 0.5 µM (Table 2, Inhibition of nSMase).

In the case of `COc1cc(-c2nc(-c3cccs3)c(C)[nH]2)cc(OC)c1O` [Compound 41, 2,6-dimethoxy-4-(4-methyl-5-(thiophen-2-yl)-1H-imidazol-2-yl)phenol hydrochloride], the IC50 is, setting by setting: under setting [1], 0.01 µM; (Table 2, Inhibition of nSMase) 0.01 µM.

For the compound `COc1cc(-c2nc3ccccc3[nH]2)cc(OC)c1O` [Compound 42, 4-(1H-benzo[d]imidazol-2-yl)-2,6-dimethoxyphenol], the IC50 runs as follows: under setting [1], 0.6 µM; (Table 2, Inhibition of nSMase) 0.6 µM. For the compound `COc1cc(-c2nc3cccnc3[nH]2)cc(OC)c1O` [Compound 43, 4-(3H-imidazo[4,5-b]pyridin-2-yl)-2,6-dimethoxyphenol], the IC50 runs as follows: under setting [1], 4 µM; (Table 2, Inhibition of nSMase) 4 µM. On to `COc1cc(-c2nc3c(C)ccc(C)c3[nH]2)cc(OC)c1O` [Compound 44, 4-(4,7-dimethyl-1H-benzo[d]imidazol-2-yl)-2,6-dimethoxyphenol], for which the IC50 under setting [1] is 0.8 µM and 0.8 µM corresponded to half-maximal inhibition (Table 2, Inhibition of nSMase) (IC50).

For the compound `CC(C)(C)Oc1cc(-c2nc(-c3ccccc3)c(-c3cccs3)[nH]2)cc(OC(C)(C)C)c1O` [Compound 45, 2,6-di-tert-butoxy-4-(4-phenyl-5-(thiophen-2-yl)-1H-imidazol-2-yl)phenol], the IC50 is, setting by setting: under setting [1], 0.4 µM; (Table 2, Inhibition of nSMase) 0.4 µM. Consider `CCCCc1nc(-c2cc(OC)c(O)c(OC)c2)[nH]c1CCCC` [Compound 46, 4-(4,5-dibutyl-1H-imidazol-2-yl)-2,6-dimethoxyphenol], for which the IC50 by setting is: under setting [1], 0.2 µM; (Table 2, Inhibition of nSMase) 0.2 µM.

Take `COc1cc(-c2nc(C(C)C)c(C(C)C)[nH]2)cc(OC)c1O` [Compound 47, 4-(4,5-diisopropyl-1H-imidazol-2-yl)-2,6-dimethoxyphenol]: the IC50 by setting is: under setting [1], 0.06 µM; (Table 2, Inhibition of nSMase) 0.06 µM.

As for `COc1cc(-c2nc(-c3ccccc3)c(C(C)C)[nH]2)cc(OC)c1O` [Compound 48, 4-(5-isopropyl-4-phenyl-1H-imidazol-2-yl)-2,6-dimethoxyphenol], the IC50 reads like this: under setting [1], 0.06 µM; (Table 2, Inhibition of nSMase) 0.06 µM. Under setting [1], `COc1cc(-c2nc(-c3ccccc3)c(-c3cccs3)n2C)cc(OC)c1O` [Compound 3455] displayed an IC50 of 60 µM. The same measure, in the same setting: the same measure for `COc1cc(C2=NC3CCCCC3N2)cc(OC)c1O` (centres unmarked) [Compound 3546]: 70 µM.
